The values that follow come from patent US20070179161A1, “Pyrazolopyrimidine compounds and their use in medicine” (VERNALIS (CAMBRIDGE) LIMITED., priority 2003, published 2007).

Format in all cases: biochemical
Assay [1] addresses CDK-2 enzyme, complexed with cyclin A (Homo sapiens, UniProt P24941). Put plainly: CDK2 enzyme inhibition assay (33P phosphorylation of peptide […], filter plate). Conditions: CDK-2/cyclin A, 0.1 mM ATP, 40 min at 30° C. As for the experimental part: (§1) The assay mixture containing the inhibitor and CDK-2 enzyme, complexed with cyclin A (0.4 U/ml) was mixed together in a microtiter plate in a final volume of 50 μl and incubated for 40 min at 30° C. The assay mixture contained 0.1 mM unlabeled ATP, 0.01 μCi/μl ^33P-γ-ATP, 0.03 mM peptide, 0.1 mg/ml BSA, 7.5 mM magnesium acetate, 50 mM HEPES-NaOH, pH 7.5. The reaction was stopped by adding 50 μl of 50 mM phosphoric acid. 90 μl of the mixture were transferred to a pre-wetted 96-well Multiscreen MAPHNOB filtration plate (Millipore) and filtered on a vacuum manifold. […] The filtration plate was dried for 10 min at 65° C., scintillant added and phosphorylated peptide quantified in a scintillation counter (Trilux, PerkinElmer)
HEPES is N-[2-Hydroxyethyl]piperazine-N′-[2-ethanesulfonic acid] BSA is bovine serum albumin.

A further assay deals with T1, GST-Chk1 enzyme (Homo sapiens, UniProt O14757).
T1 sequence (O14757 1-476): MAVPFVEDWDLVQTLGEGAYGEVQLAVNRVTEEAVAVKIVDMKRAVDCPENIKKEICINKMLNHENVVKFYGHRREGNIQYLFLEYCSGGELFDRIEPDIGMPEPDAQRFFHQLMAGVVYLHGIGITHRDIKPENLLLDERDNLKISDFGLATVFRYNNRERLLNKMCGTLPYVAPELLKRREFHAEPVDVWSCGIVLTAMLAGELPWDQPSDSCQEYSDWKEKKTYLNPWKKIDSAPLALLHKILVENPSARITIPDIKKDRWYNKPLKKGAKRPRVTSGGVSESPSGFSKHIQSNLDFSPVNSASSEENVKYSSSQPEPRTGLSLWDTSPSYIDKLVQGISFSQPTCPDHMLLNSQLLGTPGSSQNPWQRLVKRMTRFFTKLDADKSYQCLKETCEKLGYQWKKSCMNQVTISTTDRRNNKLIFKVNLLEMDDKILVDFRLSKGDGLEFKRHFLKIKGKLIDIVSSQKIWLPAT
Put plainly: Chk1 kinase inhibition assay (33P phosphorylation of Chktide, filter plate). Conditions: 0.01 mM ATP, 11 nM GST-Chk1, 40 minutes at 30° C.; for pIC50: read-out: Chk1 IC50. As for the experimental part: The assay mixture containing the inhibitor and Chk1 enzyme was mixed together in a microtiter plate in a final volume of 50 μl and incubated for 40 minutes at 30° C.
The reaction was stopped by adding 50 μl of 50 mM phosphoric acid. 90 μl of the mixture was transferred to a pre-wetted 96-well Multiscreen MAPHNOB filtration plate (Millipore) and filtered on a vacuum manifold. […] The filtration plate was dried for 10 min at 65° C., scintillant added and phosphorylated peptide quantified in a scintillation counter (Trilux, PerkinElmer)

The target of another assay is T2, PDK1 enzyme (Homo sapiens, UniProt O15530).
T2 sequence (O15530 1-556): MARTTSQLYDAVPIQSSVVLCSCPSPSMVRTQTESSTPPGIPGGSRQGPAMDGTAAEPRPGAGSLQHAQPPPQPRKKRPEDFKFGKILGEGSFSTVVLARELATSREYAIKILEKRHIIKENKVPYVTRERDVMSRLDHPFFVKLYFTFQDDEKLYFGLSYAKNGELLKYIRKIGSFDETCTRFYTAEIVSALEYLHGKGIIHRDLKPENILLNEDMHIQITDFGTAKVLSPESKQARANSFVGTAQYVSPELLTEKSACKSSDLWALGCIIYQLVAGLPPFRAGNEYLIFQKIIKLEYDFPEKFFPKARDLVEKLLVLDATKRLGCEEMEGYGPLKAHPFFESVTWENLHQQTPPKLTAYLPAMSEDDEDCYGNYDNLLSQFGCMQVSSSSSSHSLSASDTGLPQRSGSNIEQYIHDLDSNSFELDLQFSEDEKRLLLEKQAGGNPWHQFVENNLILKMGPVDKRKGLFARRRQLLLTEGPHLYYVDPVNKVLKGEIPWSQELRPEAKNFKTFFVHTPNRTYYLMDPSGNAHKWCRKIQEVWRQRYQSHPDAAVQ
Put plainly: PDK1 kinase inhibition assay (33P phosphorylation of synthetic peptide, filter plate). As to conditions: 0.01 mM ATP, 60 min at 30° C.; for pIC50: read-out: PDK1 IC50. As for the experimental part: as §1, with “and PDK1 enzyme” for “and CDK-2 enzyme, complexed with cyclin A (0.4 U/ml)”, “for 60” for “for 40”, “contained 0.01” for “contained 0.1”, “^33P-γ-ATP, 0.075” for “^33P-γ-ATP, 0.03”, “acetate, 0.05M Tris.HCl,” for “acetate, 50 mM HEPES-NaOH,”, “pH 7.5, 0.5% 2-mercaptoethanol.” for “pH 7.5.”

pIC50: −log10 of the molar value. Where two headings read alike, the source gives them in different places.

By pIC50 is commonly meant −log10 of the IC50, conventionally taken in molar units. Take `NS(=O)(=O)c1ccc(Nc2cc(Cl)nc3ccnn23)cc1` [Example 12]: the pIC50 in assay [1] is 6.14; at GST-Chk1 enzyme, less than 3.70; on PDK1 enzyme it was less than 3.70.
Regarding `CC(C)c1cnn2c(Nc3ccc(S(=O)(=O)N(C)C)cc3)cc(NCCN)nc12` [Example 98], the pIC50 in assay [1] was 5.12; at GST-Chk1 enzyme it was 4.73; at PDK1 enzyme, less than 3.70.
On to `Oc1ccc(-c2cc(Nc3ccccc3)n3nccc3n2)cc1` [Example 4], for which the pIC50 was 5.42 in assay [1], less than 3.70 on GST-Chk1 enzyme and less than 3.70 on PDK1 enzyme.
As for `Cc1cccc(-c2cc(Nc3ccc(S(=O)(=O)N4CCOCC4)cc3)n3nccc3n2)c1` [Example 13], the pIC50 in assay [1] was 5.75; at GST-Chk1 enzyme it was less than 3.70; on PDK1 enzyme, less than 3.70.
`CCc1cnn2c(Nc3ccc(S(C)(=O)=O)cc3)cc(N(C)C)nc12` [Example 45]: the pIC50 was 5.95 in assay [1], less than 3.70 at GST-Chk1 enzyme and less than 3.70 on PDK1 enzyme.
Take `CC(C)c1cnn2c(Nc3ccc(S(=O)(=O)NCCN(C)C)cc3)cc(OC3CCCCC3)nc12` [Example 91]: the results for the pIC50 (in assay [1]; at GST-Chk1 enzyme; at PDK1 enzyme) were 6.06, 5.27 and less than 3.70, respectively.
Turning to `CC(C)c1cnn2c(Nc3ccc(S(C)(=O)=O)nc3)cc(N[C@H]3CC[C@H](N)CC3)nc12` [Example 107], the pIC50 is 7.00 in assay [1], 4.71 on GST-Chk1 enzyme and 4.02 on PDK1 enzyme.
As for `NS(=O)(=O)c1ccc(Nc2cc(OC3CCCCC3)nc3ccnn23)cc1` [Example 22], the pIC50 in assay [1] is 6.52; on GST-Chk1 enzyme, less than 3.70; on PDK1 enzyme, 4.15.
Consider `CC(C)c1cnn2c(Nc3ccc(S(=O)(=O)N(C)C)cc3)cc(NCCCN3CCOCC3)nc12` [Example 102], for which the pIC50 in assay [1] is 6.02; at GST-Chk1 enzyme it was less than 3.70; on PDK1 enzyme, less than 3.70.
On to `CC(C)c1cnn2c(Nc3ccc(S(=O)(=O)N(C)C)cc3)cc(NCC(C)(C)CN(C)C)nc12` [Example 106], for which the results for the pIC50 (in assay [1]; on GST-Chk1 enzyme; on PDK1 enzyme) were 5.48, 4.74 and 4.84, respectively.
The matching figures for `O=S(=O)(Nc1ccccn1)c1ccc(Nc2cc(Cl)nc3ccnn23)cc1` [Example 10]: 5.79, less than 3.70 and less than 3.70.
The matching figures for `CC(C)c1cnn2c(Nc3ccc(S(=O)(=O)N(C)C)cc3)cc(N3CCCC(CO)C3)nc12` (centres unmarked) [Example 49]: 6.41, less than 3.70 and less than 3.70.
The matching figures for `CC(C)c1cnn2c(Nc3ccc(S(=O)(=O)N(C)CCN(C)C)cc3)cc(Cl)nc12` [Example 60]: 7.40, less than 3.70 and less than 3.70.
On to `CNS(=O)(=O)c1ccc(Nc2cc(N[C@H]3CC[C@H](N)CC3)nc3c(C(C)C)cnn23)cc1` [Example 61], for which the pIC50 in assay [1] is 7.49; at GST-Chk1 enzyme, 5.18; on PDK1 enzyme, 4.96.
The matching figures for `CC(C)c1cnn2c(Nc3ccc(S(=O)(=O)N4CCCC4)cc3)cc(N[C@H]3CC[C@H](N)CC3)nc12` [Example 62]: 7.62, 5.49 and 5.92.
In general, IC50 refers to the point on the concentration scale where inhibition reaches its midpoint. The low end stands for higher potency, the high end for lower potency. In the case of `CS(=O)(=O)c1ccc(Nc2cc(Cl)nc3ccnn23)cc1` [Example 15], the IC50 at GST-Chk1 enzyme (Chk1 IC50(μM)) and at PDK1 enzyme (PDK1 IC50(μM)) was more than 200 µM in each case.
